Measured values published in patent publication US12606543B2, “Indole derivatives as serotonergic agents useful for the treatment of disorders related thereto” (priority 2023, dated 2026).
Like-named read-outs stand apart in the source and are kept apart here.

What was measured:
human 5-HT2B receptor [1] = target: T1, human 5-HT2B receptor (Homo sapiens, UniProt P41595); assay: Human 5-HT2B radioligand binding assay ([3H]-LSD)
Experimental: The objective of this study was to evaluate the binding properties of test compounds on 5-HT2B.
1) The assay buffer was prepared following Table 29 below.
2) Eight doses of reference and test compounds starting from 10 mM stock solution as requested by 5-fold serial dilutions with 100% (v/v) DMSO.
3) UniFilter-96 GF/B plate was pretreated: • a. 50 μL/well of 0.5% (v/v) PEI to UniFilter-96 GF/B plates. The plates were sealed and incubated at 4° C. for 3 hrs. • b. After incubation, the plates were washed 3 times with ice-cold wash buffer (50 mM Tris, pH 7.4).
4) Assay plate preparation: • a. Cell membrane was diluted with assay buffer and 330 μL/well added to 96 round deep well plates to reach a concentration of 1 unit/well. • b. Eight concentrations of reference or test compounds were prepared and 110 μL/well added to 96 round deep well plates. • c. [3H]-LSD was diluted with assay buffer to 5 nM (5× final concentration) and 110 μL/well was added to 96 round deep well plates.
5) The plate was centrifuged at 1000 rpm for 30 secs and then agitated at 600 rpm at room temperature for 5 mins.
6) The plates were sealed and incubated at 37° C. for 90 mins.
7) The incubation was stopped by vacuum filtration onto GF/B filter plates followed by washing four times with ice-cold wash buffer (50 mM Tris, pH7.4).
9) The filter plates were sealed and 40 μL/well of scintillation cocktail was added.
10) The plate was read using a Microbeta2 microplate counter.
(§1) For reference and test compounds, the results are expressed as % Inhibition, using the normalization equation: N=100−100×(U−C2)/(C1−C2), where U is the unknown value, C1 is the average of high controls, and C2 is the average of low controls. The IC50 is determined by fitting percentage of inhibition as a function of compound concentrations with Hill equation.
The objective of this study is to evaluate the binding properties of test compounds on 5-HT2B.
1) The assay buffer was prepared following Table 59 below.
3) UniFilter-96 GF/B plate was pretreated: • a. 50 μL/well of 0.5% (v/v) PEI to UniFilter-96 GF/B plates. The plates were sealed and incubate at 4° C. for 3 hrs. • b. After incubation, the plates were washed three times with ice-cold wash buffer (50 mM Tris, pH7.4).
5) The plate was centrifuged at 1000 rpm for 30 secs and then agitated at 600 rpm at room temperature for 5 min.
8) The plates were dried at 37° C. for 45 mins.
10) The plate was read using a Microbeta^2 microplate counter.
as §1, with “average of the high controls,” for “average of high controls,”, “average of the low controls.” for “average of low controls.”

human 5-HT2B receptor [2] = target: T1, human 5-HT2B receptor; assay: Human 5-HT2B positive allosteric modulator (PAM) assay; format: cell-based; design: expressed in transfected cells; host or cells: HEK293; conditions: for Emax (% of serotonin): PAM mode, agonist at EC20, relative to maximum response of serotonin
Experimental: Compound potency (EC50) and efficacy (Max response) against the human 5-HT2B receptor in stably transfected HEK293 cells were determined in a GPCR cell-based assay.
(§2) For Positive Allosteric Modulator determination, cells were pre-incubated with sample followed by EC20 addition. Intermediate dilution of sample stocks were performed to generate 5× samples in assay buffer. 5 μL of 5× samples were added to cells and incubated at 37° C. for 10 mins. 5 μL of agonist at 6×EC20 concentration was added and cells were incubated at 37° C. for 120 mins. Final assay vehicle concentration was 1%. The results are expressed as percent efficacy relative to the maximum response of the control ligand (serotonin) in Table 14.
Compound potency (EC50) and efficacy (Max response) against the human 5-HT2B receptor in stably transfected HEK293 cells was determined in a GPCR cell-based assay.
as §2, with “sample stocks was performed to” for “sample stocks were performed to”, “added and the cells were” for “added and cells were”, “120 mins. The final assay vehicle” for “120 mins. Final assay vehicle”, “in Table 64.” for “in Table 14.”

human 5-HT2B receptor [3] = target: T1, human 5-HT2B receptor; assay: Human 5-HT2B FLIPR calcium mobilization assay; format: cell-based; design: expressed in transfected cells; host or cells: HEK293; conditions: for Emax (% of serotonin): HEK293 cells, relative to maximum response of serotonin
Experimental: Compound potency (EC50) and efficacy (Max response) against the human 5-HT2B receptor in stably transfected HEK293 cells were determined in a calcium mobilization-based assay.
Cells were seeded in a total volume of 20 μL into white walled, 384-well microplates and incubated at 37° C. overnight. Prior to testing, cell plating media was exchanged with 20 μL of Dye Loading buffer (HBSS+20 mM HEPES containing 1× Dye, 1× Additive A, and 2.5 mM Probenecid). Plates were incubated at 37° C. for 45 mins followed by 15 mins at room temperature.
(§3) 10 μL of assay buffer (HBSS+20 mM HEPES) were added to cells. Intermediate dilution of sample stocks was performed to generate 4× samples in assay buffer. Assay plates and compound plates were loaded into the FLIPR instrument. 10 μL of sample was added using the FLIPR onboard robotics after 5 seconds of starting calcium measurement. A final assay vehicle concentration was 1%. The results are expressed as percent efficacy relative to the maximum response of the control ligand (serotonin) in Table 12.
Compound potency (EC50) and efficacy (Max response) against the human 5-HT2B receptor in stably transfected HE K293 cells was determined in a calcium mobilization-based assay.
as §3, with “HEPES) was” for “HEPES) were”, “of samples were” for “of sample was”, “5 secs” for “5 seconds”, “measurement. The” for “measurement. A”, “Table 62.” for “Table 12.”

[4] = Plasma protein binding by equilibrium dialysis, mouse; format: in vitro ADME; conditions: for recovery at 6 h, 1 µM: CD-1, mouse, plasma; for fraction unbound at 6 h, 1 μM: CD-1, read-out: % Bound (converted)
Experimental: The final concentration of compound was 1 μM. The final concentration of DMSO was 0.5%. Ketoconazole was used as positive control in the assay.
The assay was performed in duplicate.
All calculations were carried out using Microsoft Excel. […] The percentages of bound compound were calculated as follows: […]
Ketoconazole was used as positive control in the assay.

[5] = [3H]-LSD displacement, cell membrane, 37° C., 90 min, read-out: 5-HT2B, IC50
[6] = [3H]-LSD displacement, cell membrane, 37° C., 90 min, read-out: 5-HT2B, Ki
[7] = PAM mode: pre-incubation with sample, then agonist at EC20, HEK293 cells, read-out: EC50
[8] = calcium mobilization FLIPR, stably transfected HEK293 cells, read-out: EC50
[9] = mouse plasma, equilibrium dialysis, 37° C., 6 hours

T1 sequence (P41595 whole entry): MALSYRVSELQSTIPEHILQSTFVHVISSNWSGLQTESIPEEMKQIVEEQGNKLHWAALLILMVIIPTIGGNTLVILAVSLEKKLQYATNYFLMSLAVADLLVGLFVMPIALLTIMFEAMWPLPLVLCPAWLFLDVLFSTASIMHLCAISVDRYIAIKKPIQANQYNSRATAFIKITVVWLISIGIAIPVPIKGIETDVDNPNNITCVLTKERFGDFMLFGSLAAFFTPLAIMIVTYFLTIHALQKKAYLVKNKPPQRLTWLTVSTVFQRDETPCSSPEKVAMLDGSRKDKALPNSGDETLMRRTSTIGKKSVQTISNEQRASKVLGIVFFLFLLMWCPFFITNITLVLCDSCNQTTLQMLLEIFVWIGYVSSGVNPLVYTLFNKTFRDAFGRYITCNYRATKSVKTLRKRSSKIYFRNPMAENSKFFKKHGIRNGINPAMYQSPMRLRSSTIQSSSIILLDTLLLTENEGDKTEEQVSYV

SMILES | IC50 (human 5-HT2B receptor [1]; [5]) | Ki (human 5-HT2B receptor [1]; [6]) | EC50 (human 5-HT2B receptor [2]) | Emax (% of serotonin) (human 5-HT2B receptor [2]; HEK293 cells) | EC50 (human 5-HT2B receptor [3]) | Emax (% of serotonin) (human 5-HT2B receptor [3]; calcium mobilization FLIPR) | recovery at 6 h, 1 µM ([4]; Mouse plasma, 1 μM, equilibrium dialysis 6 hours) | fraction unbound at 6 h, 1 μM ([4]; Mouse plasma, 1 μM, equilibrium dialysis 6 hours, 37° C.) | % Remaining @ 6 hours ([4]; Mouse plasma, 1 μM, 6 hours, 37° C.) | IC50 (human 5-HT2B receptor [1]) | Ki (human 5-HT2B receptor [1]) | EC50 (human 5-HT2B receptor [2]; [7]) | EC50 (human 5-HT2B receptor [3]; [8]) | recovery at 6 h, 1 µM [4, 9] | fraction unbound at 6 h, 1 μM [4, 9] | % Remaining @ 6 hours ([4]; mouse plasma, 6 hours)
[2H]C([2H])(c1c[nH]c2ccc(OCCCCCN3C(=O)C4CCCCC4C3=O)cc12)[C@H]1CCCN1C([2H])([2H])[2H] (mixture of isomers) [Rac (R) I-248] | 46.3 nM | 23.9 nM |  |  |  |  |  |  |  |  |  |  |  |  |  | 
CSc1ccc2[nH]cc(C[C@H]3CCCN3C)c2c1 [(R) I-1, (R)-3-((1-Methylpyrrolidin-2-yl)methyl)-5-(methylthio)-1H-indole] |  |  | > 10000 nM | 0 % of serotonin | 2.74 nM | 62.94 % of serotonin | 113% | 0.521 | 112.85% | 19 nM | 9.82 nM |  |  |  |  | 
COCCN1CCC[C@@H]1Cc1c[nH]c2ccc(OC)cc12 [(R) I-98, (R)-5-Methoxy-3-((1-(2-methoxyethyl)pyrrolidin-2-yl)methyl)-1H-indole] | 45.6 nM | 23.6 nM |  | 0 % of serotonin |  | 52.7 % of serotonin |  |  |  |  |  | > 10000 nM | 2.88 nM | 96.4% | 0.632 | 103.70%
[2H]C([2H])(c1c[nH]c2ccc(OCCCCN3C(=O)c4ccccc4C3=O)cc12)[C@H]1CCCN1C([2H])([2H])[2H] [(R) I-244, (R)-2-(4-((3-((1-(Methyl-d3)pyrrolidin-2-yl)methyl-d2)-1H-indol-5-yl)oxy)butyl)isoindoline-1,3-dione] | 21.4 nM | 11.1 nM |  | 26.89 % of serotonin |  | 92.75 % of serotonin |  |  |  |  |  | 97.4 nM | 2.5 nM | 84.8% | 0.101 | 94.96%
[2H]C([2H])(c1c[nH]c2ccc(OCCCCCN3C(=O)c4ccccc4C3=O)cc12)[C@H]1CCCN1C([2H])([2H])[2H] [(R) I-245, (R)-2-(5-((3-((1-(Methyl-d3)pyrrolidin-2-yl)methyl-d2)-1H-indol-5-yl)oxy)pentyl)isoindoline-1,3-dione] |  |  |  | 0 % of serotonin |  | 53.91 % of serotonin |  |  |  |  |  | > 3330 nM | 11.2 nM |  |  | 
[2H]C([2H])(c1c[nH]c2ccc(OCCCCCN3C(=O)[C@H]4CCCC[C@H]4C3=O)cc12)[C@H]1CCCN1C([2H])([2H])[2H] [Cis (R) I-248, 2-(5-((3-(((R)-1-(Methyl-d3)pyrrolidin-2-yl)methyl-d2)-1H-indol-5-yl)oxy)pentyl)hexahydro-1H-isoindole-1,3(2H)-dione] |  |  |  | 7.97 % of serotonin |  | 69.85 % of serotonin |  |  |  |  |  | > 10000 nM | 24.9 nM |  |  | 
